Source: patent US20070128217A1 (priority 2003, published 2007)

Legend:
[1] = system: rabbit serum obtained by immunizing a rabbit with the SARS-CoV strain Frankfurt 1; type: binding; parameters: Binding of a rabbit serum to linear peptides / Binding of a rabbit serum to looped peptides / Rabbit serum linear peptides / Rabbit serum looped peptides / Binding of a rabbit serum to linear peptides of protein N of SARS-CoV Urbani (Rabbit serum linear peptides) / Binding of a rabbit serum to looped/cyclic peptides of protein N of SARS-CoV Urbani (Rabbit serum looped peptides): unit not given here
[2] = system: recombinant human anti-SARS-CoV antibody 03-018; type: binding; parameters: Binding of antibody 03-018 to linear peptides of the N protein of SARS-CoV Urbani / Binding of antibody 03-018 to looped/cyclic peptides of the N protein of SARS-CoV Urbani: unit not given here
[3] = system: antibodies in sera from SARS patients (sera 1a, 1b, 2, 6, 37, 62, London, SARS-yellow, SARS-green); type: binding, human; parameters: Binding of serum 6 to linear peptides of protein X1 of SARS-CoV Urbani / Binding of serum 37 to linear peptides of protein X1 of SARS-CoV Urbani / Binding of serum 6 to looped/cyclic peptide (PEPSCAN-ELISA) / Binding of serum 37 to looped/cyclic peptide (PEPSCAN-ELISA) / Binding of serum 37 to looped/cyclic peptides of protein X1 of SARS-CoV Urbani / Binding of serum 6 to linear peptides of protein X2 / Binding of serum 37 to linear peptides of protein X2 / Binding of serum 37 to looped/cyclic peptides of protein X2 of SARS-CoV Urbani / Binding of serum 6 to linear peptides of protein M of SARS-CoV Urbani / Binding of serum 37 to linear peptides of protein M of SARS-CoV Urbani / Binding of serum 6 to looped/cyclic peptides of protein M of SARS-CoV Urbani / Binding of serum 37 to looped/cyclic peptides of protein M of SARS-CoV Urbani / Binding of serum 6 to linear peptides of protein X3 of SARS-CoV Urbani / Binding of serum 37 to linear peptides of protein X3 of SARS-CoV Urbani / Binding of serum 37 to looped/cyclic peptides of protein X3 of SARS-CoV Urbani / Binding of serum 6 to linear peptides of protein X4 of SARS-CoV Urbani / Binding of serum 37 to linear peptides of protein X4 of SARS-CoV Urbani / Binding of serum 37 to looped/cyclic peptides of protein X4 of SARS-CoV Urbani / Binding of serum 6 to linear peptides of protein X5 of SARS-CoV Urbani / Binding of serum 37 to linear peptides of protein X5 of SARS-CoV Urbani / Binding of serum 37 to looped/cyclic peptides of protein X5 of SARS-CoV Urbani / Binding of serum 6 to linear peptides of protein N of SARS-CoV Urbani / Binding of serum 37 to linear peptides of protein N of SARS-CoV Urbani / Binding of serum 6 to linear peptide (PEPSCAN-ELISA) / Binding of serum 1a to looped/cyclic peptides of protein N of SARS-CoV Urbani / Binding of serum 1b to looped/cyclic peptides of protein N of SARS-CoV Urbani / Binding of serum 2 to looped/cyclic peptides of protein N of SARS-CoV Urbani / Binding of serum 6 to looped/cyclic peptides of protein N of SARS-CoV Urbani / Binding of serum 37 to looped/cyclic peptides of protein N of SARS-CoV Urbani / Binding of serum 62 to looped/cyclic peptides of protein N of SARS-CoV Urbani / Binding of serum London to looped/cyclic peptides of protein N of SARS-CoV Urbani / Binding of serum SARS-green to looped/cyclic peptides of protein N of SARS-CoV Urbani: unit not given here
[4] = system: control sera (pooled serum of ten healthy LUMC hospital workers; commercial negative donor pooled serum from the Dutch bloodbank); type: binding, human

Sequence | Binding of a rabbit serum to linear peptides of protein N of SARS-CoV Urbani (Rabbit serum linear peptides) [1] | Binding of a rabbit serum to looped/cyclic peptides of protein N of SARS-CoV Urbani (Rabbit serum looped peptides) [1] | Binding of antibody 03-018 to linear peptides of the N protein of SARS-CoV Urbani [2] | Binding of antibody 03-018 to looped/cyclic peptides of the N protein of SARS-CoV Urbani [2] | Binding of serum 1a to linear peptides of protein N of SARS-CoV Urbani [3] | Binding of serum 1a to looped/cyclic peptides of protein N of SARS-CoV Urbani [3] | Binding of serum 1b to linear peptides of protein N of SARS-CoV Urbani [3] | Binding of serum 1b to looped/cyclic peptides of protein N of SARS-CoV Urbani [3] | Binding of serum 2 to linear peptides of protein N of SARS-CoV Urbani [3] | Binding of serum 2 to looped/cyclic peptides of protein N of SARS-CoV Urbani [3] | Binding of serum 6 to linear peptides of protein N of SARS-CoV Urbani [3] | Binding of serum 6 to looped/cyclic peptides of protein N of SARS-CoV Urbani [3] | Binding of serum 37 to linear peptides of protein N of SARS-CoV Urbani [3] | Binding of serum 37 to looped/cyclic peptides of protein N of SARS-CoV Urbani [3] | Binding of serum 62 to linear peptides of protein N of SARS-CoV Urbani [3] | Binding of serum 62 to looped/cyclic peptides of protein N of SARS-CoV Urbani [3] | Binding of serum London to linear peptides of protein N of SARS-CoV Urbani [3] | Binding of serum London to looped/cyclic peptides of protein N of SARS-CoV Urbani [3] | Binding of serum SARS-green to linear peptides of protein N of SARS-CoV Urbani [3] | Binding of serum SARS-green to looped/cyclic peptides of protein N of SARS-CoV Urbani [3] | other results
IAQFAPSASAFFGMS | 0.2 | 0.4 | 0.1 | 0.3 | 0.2 | 0.4 | 0.1 | 0.2 | 0.1 | 0.4 | 0.1 | 0.3 | 0.6 | 0.7 | 0.5 | 0.6 | 0.4 | 0.4 | 0.2 | 0.4 | Binding of serum SARS-yellow to linear peptides of protein N of SARS-CoV Urbani [3]: 0.6; Binding of serum SARS-yellow to looped/cyclic peptides of protein N of SARS-CoV Urbani [3]: 0.4; Control Serum Blood-Bank Looped peptides [4]: 0.8; Control serum Blood-bank linear peptides [4]: 0.7; Control serum LUMC linear peptides [4]: 0.6; Control serum LUMC looped peptides [4]: 0.6
IGMEVTPSGTWLTYH | 0.1 | 0.6 | 0.1 | 0.2 | 0.2 | 0.5 | 0.1 | 0.3 | 0.1 | 0.5 | 0.2 | 0.3 | 0.6 | 0.8 | 0.6 | 1.0 | 0.5 | 0.6 | 0.3 | 0.7 | Binding of serum SARS-yellow to linear peptides of protein N of SARS-CoV Urbani [3]: 0.5; Binding of serum SARS-yellow to looped/cyclic peptides of protein N of SARS-CoV Urbani [3]: 0.5; Control Serum Blood-Bank Looped peptides [4]: 0.8; Control serum Blood-bank linear peptides [4]: 0.8; Control serum LUMC linear peptides [4]: 0.6; Control serum LUMC looped peptides [4]: 0.8
